{"source": "patent US20190254984A1", "about": "“COMPOSITION AND FOOD OR DRINK” (Advanced Medical Frontier Co., Ltd., priority 2012, published 2019)", "key": {"ob/ob mice [1]": {"system": "ob/ob mice", "experiment": "Example 2: oral glucose tolerance test in ob/ob mice", "type": "in vivo", "conditions": "γ-oryzanol alone 5 and 320 μg/g of body weight/day; vs vehicle; FIG. 3C, 3D", "protocol": "(§1) First, the γ-oryzanol-incorporating particle was suspended in distilled water at 5%, 1.25%, and 0.31% (w/v). As a control, γ-oryzanol was suspended in 0.5% (w/v) methylcellulose solution (manufactured by Wako Pure Chemical Industries, Ltd.) at 0.05% and 3.2% (0.5 and 32 mg/ml).\n(§2) Subsequently, each of the γ-oryzanol-incorporating particle suspensions and the γ-oryzanol suspensions was orally administered to ob/ob mice (five weeks old, male, B6. Lepob/J mice (homozygote (Lepob/Lepob)), made by Charles River Laboratories Japan, Inc.) (n=6) using a probe. For the details, the γ-oryzanol-incorporating particle suspension at 0.3, 1.3, and 5 μg/g of body weight/14 days in terms of γ-oryzanol was administered to the mice for two days followed by a five-day rest period every two weeks; and observation was made for 14 days. The daily dose was 1.1, 4.4, and 17.5 μg/g of body weight/day, respectively. […]\n(§3) One week and two weeks after the beginning of the administration, the body weight and blood glucose level of the mice were measured. […] In such a test, following to 18-hour fasting, glucose was orally administered at 0.75 g/kg using a probe; and the blood glucose level was measured from the time of administration to two hours thereafter."}, "Chop": {"system": "Chop", "experiment": "Example 5: ER stress marker gene expression in tissues (real time PCR), Chop", "type": "in vivo, mice", "conditions": "for expression level of Chop: hypothalamus, Orz even at 320 μg/g of body weight/day", "protocol": "(§4) γ-oryzanol incorporated with PLGA particles was dissolved in distilled water (hereinafter referred to as “Nano Orz”) and administered to the mice using a probe at a dose of 0.3, 1.3, or 5 μg/g of body weight per day for two days every two weeks. As a solution of γ-oryzanol which was not enclosed in the PLGA particle, γ-oryzanol (manufactured by Wako Pure Chemical Industries, Ltd.) was dissolved in a 0.5% methylcellulose solution (hereinafter referred to as “Orz”). Orz was administered to the stomach using a probe everyday for four weeks (5 or 320 μg/g of body weight/day).\n(§5) The hypothalamus, the islets of Langerhans, the adipose tissue of the mesentery, the liver, the epididymal adipose tissue, and the subcutaneous adipose tissue were collected from the mice; and the expression level of ER stress marker genes (Chop, ERdj4, and Xbp1s), and inflammation marker genes (TNF-α and MCP-1) was quantified using a quantitative real time polymerase chain reaction. The islets of Langerhans was isolated from mice by digestion with collagenase (Liberase TL; manufactured by Roche Diagnostics K.K.) and purified using Histopaque (trademark) gradient (Histopaque 1077; manufactured by Sigma-Aldrich).\n(§6) Using TRIzol (registered trademark) RNA Isolation Reagents (manufactured by Life Technologies Corporation), total RNA was extracted from each of the tissues; and cDNA was synthesized using iScript (trademark) cDNA Synthesis Kit (manufactured by Bio-Rad Laboratories, Inc.). Next, quantitative real time PCR was carried out using StepOnePlus (trademark) Real-Time PCR System, Fast TaqMan Universal Master Mix, and Fast SYBR Green Master Mix (manufactured by Applied Biosystems). The level of mRNA was normalized with that of 18S rRNA.\n(§7) Data were expressed as mean±standard error (s.e.m). One-way analysis of variance, repeated measures analysis of variance, and multiple comparisons following repeated measures analysis of variance (Bonferroni/Dunn method) were employed as appropriate. For analysis of difference between two groups, Student's t-test was employed. […]"}, "ob/ob mice [2]": {"system": "ob/ob mice", "experiment": "Example 5: plasma triglyceride", "type": "in vivo", "conditions": "Orz at the same amount as Nano Orz; n=6; FIG. 13", "protocol": "as §4\n(§8) Whole blood was collected from the tail vein of mice; and blood glucose was measured using a simple blood glucose meter. A blood sample was further collected from the network of the retro orbital vein. For a glucose tolerance test, the mice were fasted for 18 hours and thereafter administered with glucose at 0.75 g/kg of body weight. The blood glucose level was measured at the predetermined time. In addition, for an insulin tolerance test, insulin (0.5 unit/kg of body weight; manufactured by Eli Lilly) was intraperitoneally injected to the mice that had fasted for four hours. The concentration of triglycerides in the plasma was determined by Triglyceride E-Test Wako.\n(§9) Data were expressed as mean±standard error (s.e.m). […]"}, "ERdj4": {"system": "ERdj4", "experiment": "Example 5: ER stress marker gene expression in tissues (real time PCR), ERdj4", "type": "in vivo, mice", "conditions": "Orz even at 320 μg/g of body weight/day", "protocol": "as §4\nas §5, with “Sigma-Aldrich). […]” for “Sigma-Aldrich).”\nas §9"}, "Xbp1s": {"system": "Xbp1s", "experiment": "Example 5: ER stress marker gene expression in tissues (real time PCR), Xbp1s", "type": "in vivo, mice", "conditions": "Orz even at 320 μg/g of body weight/day, N=8", "protocol": "as §4, §5, §6, §7"}, "MCP-1": {"system": "MCP-1", "experiment": "Example 5: inflammation marker gene expression in adipose tissues (real time PCR), MCP-1", "type": "in vivo, mice", "conditions": "Orz even at 320 μg/g of body weight/day, N=8", "protocol": "as §4\nas §5, with “Sigma-Aldrich). […]” for “Sigma-Aldrich).”\nas §9"}, "TNF-α": {"system": "TNF-α", "experiment": "Example 5: inflammation marker gene expression in adipose tissues (real time PCR), TNF-α", "type": "in vivo, mice", "conditions": "Orz even at 320 μg/g of body weight/day, N=8", "protocol": "as §4\nas §5, with “Sigma-Aldrich). […]” for “Sigma-Aldrich).”\nas §9"}, "ob/ob mice [3]": {"system": "ob/ob mice", "experiment": "Example 2: blood glucose level of ob/ob mice", "type": "in vivo", "conditions": "γ-oryzanol alone, oral daily 5 and 320 μg/g of body weight/day; FIG. 2B", "protocol": "as §1, §2, §3"}, "obese mice": {"system": "obese mice", "conditions": "oral γ-oryzanol 320 mg/kg; cited from earlier work"}, "ob/ob mice [4]": {"system": "ob/ob mice", "experiment": "Example 5: insulin tolerance test", "type": "in vivo", "conditions": "Orz even at 320 μg/g of body weight/day; n=14; FIG. 12C, 12D", "protocol": "as §4, §8, §9"}, "ob/ob mice [5]": {"system": "ob/ob mice", "experiment": "Example 5: glucose tolerance test", "type": "in vivo", "conditions": "Orz even at 320 μg/g of body weight/day; n=14; FIG. 11C, 11D", "protocol": "as §4, §8, §9"}, "ob/ob mice [6]": {"system": "ob/ob mice", "experiment": "Example 5: body weight of genetically obese mice over four weeks", "type": "in vivo", "conditions": "Orz everyday for four weeks, even at 320 μg/g of body weight/day; n=14; FIG. 9B", "protocol": "(§10) Ob/ob mice were raised at 24° C. under a light/dark cycle of 12 hours/12 hours. The mice were raised in conditions where they were able to freely take feed and water. The body weight of mice was measured every week.\nas §4\nData were expressed as mean±standard error (s.e.m). One-way analysis of variance, repeated measures analysis of variance, and multiple comparisons following repeated measures analysis of variance (Bonferroni/Dunn method) were employed as appropriate. For analysis of difference between two groups, Student's t-test was employed. Difference was considered to be significant with P<0.05."}, "ob/ob mice [7]": {"system": "ob/ob mice", "experiment": "Example 2: body weight of ob/ob mice after oral administration", "type": "in vivo", "conditions": "γ-oryzanol alone, oral daily 5 and 320 μg/g of body weight/day; FIG. 1B", "protocol": "The γ-oryzanol-incorporating particle prepared in Example 1 was orally administered to mice for evaluation.\nas §1, §2, §3"}, "[8]": {"system": "IL-8 secretion from TNF-α-stimulated intestinal epithelial cells (Caco-2)", "experiment": "Example 3: IL-8 secretion upon TNF-α stimulation of Caco-2 cells (ELISA)", "type": "cell-based, human", "conditions": "24 h pretreatment with 1 μg/ml of γ-oryzanol; a decrease observed; compared with no and 0.1 μg/ml γ-oryzanol; FIG. 7A", "protocol": "As for cells, Caco-2 (RCB0988, RIKEN, the Institute of Physical and Chemical Research) was used. Caco-2 was cultured in a […] culture dish until reaching semiconfluent. As for a medium, Dulbecco modified Eagle's Medium (DMEM, D5796, manufactured by Sigma-Aldrich) was used. To the medium, non-essential amino acids (M7145, manufactured by Sigma-Aldrich) and Penicillin/Streptomycin (hereinafter referred to as “PS”; manufactured by Gibco, Life Technologies Corporation Japan) were added.\nCells with 50 passages were detached with 0.25% trypsin/0.02% EDTA and seeded in a 24-well plate at a concentration of 2×10^5 cells/well. The cells were cultured in DMEM with 10% FBS (fetal bovine serum), 1% non-essential amino acids, and 1% PS for 14 days. The medium was changed every other day; and the cells were sufficiently differentiated to be used the experiment below.\nThe medium was removed 24 hours before stimulation with TNF-α; and the cells were washed with 1 ml of PBS per well twice. […]\nThe collected supernatant was subjected to ELISA (enzyme immunity measurement assay) to measure the amount of IL-8 in the supernatant. […] At the same time, the total amount of proteins in the supernatant was measured by using a bicinchoninic acid assay (Pierce BCA Protein Assay Kit, manufactured by Thermo Scientific). […]"}, "ob/ob mice [9]": {"system": "ob/ob mice", "experiment": "Example 5: blood glucose level of genetically obese mice over four weeks", "type": "in vivo", "conditions": "Orz even at 320 μg/g of body weight/day, n=14, FIG. 10B", "protocol": "as §10, §4\nWhole blood was collected from the tail vein of mice; and blood glucose was measured using a simple blood glucose meter. A blood sample was further collected from the network of the retro orbital vein. For a glucose tolerance test, the mice were fasted for 18 hours and thereafter administered with glucose at 0.75 g/kg of body weight. The blood glucose level was measured at the predetermined time. […] The concentration of triglycerides in the plasma was determined by Triglyceride E-Test Wako.\nas §9"}}, "data": [{"substance": "γ-oryzanol", "values": [{"measurement": "blood glucose level in oral glucose tolerance test", "setting": "ob/ob mice [1]", "value": "comparable"}, {"measurement": "expression of Chop", "setting": "Chop; adipose tissue in the mesentery, Orz 320 μg/g of body weight/day, N=8, FIG. 15A", "value": "significantly inhibited"}, {"measurement": "expression level of Chop", "setting": "Chop; N=8, FIG. 14A", "value": "did not inhibit"}, {"measurement": "expression level of Chop", "setting": "Chop; printed in the sentence on ERdj4 (FIG. 14B)", "value": "did not inhibit"}, {"measurement": "concentration of plasma triglyceride", "setting": "ob/ob mice [2]", "value": "not decreased"}, {"measurement": "expression level of ERdj4", "setting": "ERdj4; islets of Langerhans, N=8, FIG. 14C", "value": "did not inhibit"}, {"measurement": "expression level of ERdj4", "setting": "ERdj4; liver, printed in the sentence on Chop (FIG. 15C)", "value": "did not inhibit"}, {"measurement": "expression level of Xbp1s", "setting": "Xbp1s; adipose tissue in the mesentery, FIG. 15B", "value": "did not inhibit"}, {"measurement": "expression level of Xbp1s", "setting": "Xbp1s; islets of Langerhans, FIG. 14D", "value": "did not inhibit"}, {"measurement": "expression level of Xbp1s", "setting": "Xbp1s; liver, FIG. 15D", "value": "did not inhibit"}, {"measurement": "expression level of MCP-1", "setting": "MCP-1; epididymal adipose tissue, FIG. 16B", "value": "did not inhibit"}, {"measurement": "expression level of MCP-1", "setting": "MCP-1; subcutaneous fatty tissue, FIG. 16D", "value": "did not inhibit"}, {"measurement": "expression level of TNF-α", "setting": "TNF-α; epididymal adipose tissue, FIG. 16A", "value": "did not inhibit"}, {"measurement": "expression level of TNF-α", "setting": "TNF-α; subcutaneous fatty tissue, FIG. 16C", "value": "did not inhibit"}, {"measurement": "blood glucose level", "setting": "ob/ob mice [3]", "value": "not observed"}, {"measurement": "blood glucose level", "setting": "obese mice", "value": "decreased"}, {"measurement": "insulin secretion", "setting": "obese mice", "value": "promotion"}, {"measurement": "lipid absorption from the small intestine", "setting": "obese mice", "value": "inhibition"}, {"measurement": "taste for high fat diets", "setting": "obese mice", "value": "restriction"}, {"measurement": "insulin tolerance (insulin tolerance test, blood glucose and AUC)", "setting": "ob/ob mice [4]", "value": "no improvement"}, {"measurement": "glucose tolerance (glucose tolerance test, blood glucose and AUC)", "setting": "ob/ob mice [5]", "value": "no improvement"}, {"measurement": "weight gain", "setting": "ob/ob mice [6]", "value": "no significant suppression"}, {"measurement": "weight gain", "setting": "ob/ob mice [7]", "value": "not observed"}, {"measurement": "amount of IL-8 in the supernatant", "setting": "[8]", "value": "no significant difference"}, {"measurement": "blood glucose level", "setting": "ob/ob mice [9]", "value": "no significant change"}]}]}
